Assay results as given in patent US10933039B2, “Coolant mixtures” (Symrise AG, priority 2016, dated 2021).

Experiment: Sensory evaluation of coolant mixtures by a panel of 5 trained testers (cooling effect and flavor profile) in a standard chewy candy preparation
Assay type: in vivo
Conditions: panel score (5)=very true to (0)=largely not true; mean values of 5 trained testers; unsweetened, non-aromatized standard chewy candy preparation
Protocol: The cooling effect and flavor profile of various coolant mixtures were evaluated by a panel consisting of 5 trained testers. For this purpose, the mixtures were incorporated into an unsweetened and non-aromatized standard chewy candy preparation. The evaluation was reported according to the notation (5)=very true to (0)=largely not true. Data are mean values.

| SMILES | Cooling effect is strong | Cooling effect occurs rapidly |
| --- | --- | --- |
| CC(C)CC=O [C2, Isovaleraldehyde] | 3.1 | 2.0 |
| CC(C)C=O [C1, Isobutyraldehyde] | 3.2 | 2.1 |
| CC(C)CC(=O)O [C4, Isovaleric acid] | 3.1 | 2.5 |
| CC(C)C(=O)O [C3, Isobutyric acid] | 3.0 | 2.2 |
